Experiments:
[1] = system: electrically kindled rats (Stage 5 seizures); test: Electrically kindled rat model (corneal electrodes); type: in vivo, Wistar rats; details: one hour after administration; for % Protection: 100% minus % Seizure Activity
Source text: A similar effect for the enantiomer of Formula (Ib) was also found in the electrically kindled rat model (Racine R., J. Clin. Neurophysiol., 1972, 32, 281-294), an alternative model of kindling. Electrical stimulation through corneal electrodes induces a progression of behavioral seizures similar to those observed in hippocampal kindling.
Adult male Wistar rats were electrically kindled for 4 seconds (8 mA; 60 Hz) via corneal electrodes for a minimum of Stage 5 seizures.
One hour after oral administration, % Seizure Activity was assessed as a combined score of seizure activity for each animal for the total number of animals per group; % Protection is derived by subtracting % Seizure Activity om 100%.

hippocampal kindled rats = test: Hippocampal kindled rat model; type: in vivo, Sprague-Dawley rats; details: for # Protected/# Tested / Afterdischarge Duration (sec) ± S.E.M. / Seizure Score ± S.E.M.: time of test 15 min; for Seizure Score ± S.E.M.: stages 1-5
Description: In the hippocampal kindling model (Lothman E W, et al., Epilepsy Res., 1988, 2(6) 367-79), adult male Sprague-Dawley rats are surgically implanted with bipolar electrodes. Seizure score was assessed using the following stages: (1) mouth and facial movements; (2) above symptoms plus head nodding; (3) above symptoms plus forelimb clonus;(4) above symptoms plus rearing; and (5) above symptoms plus falling.

## NC(=O)OC[C@@H](O)c1ccccc1Cl [Formula (Ib)]
[1]; 1 mg/kg oral
  % Seizure Activity: 93.3%
  % Protection: 6.7%
[1]; 3 mg/kg oral
  % Seizure Activity: 46.7%
  % Protection: 53.3%
[1]; 10 mg/kg oral
  % Seizure Activity: 33.3%
  % Protection: 66.7%
[1]; 100 mg/kg oral
  % Seizure Activity: 0%
  % Protection: 100%
[1]; Rattus norvegicus, 1 h, oral, expression of Stage 5 seizures
  ED50: 4.2 mg/kg
Hippocampal kindled rats; 12.5 mg/kg intraperitoneally
  # Protected/# Tested: 2/7
  Afterdischarge Duration (sec) ± S.E.M.: 52.00 ± 10.88 s
  Seizure Score ± S.E.M.: 3.43 ± 0.53
Hippocampal kindled rats; 25 mg/kg intraperitoneally
  # Protected/# Tested: 4/7
  Afterdischarge Duration (sec) ± S.E.M.: 38.29 ± 13.48 s
  Seizure Score ± S.E.M.: 2.29 ± 0.78
Hippocampal kindled rats; 37.5 mg/kg intraperitoneally
  # Protected/# Tested: 5/7
  Afterdischarge Duration (sec) ± S.E.M.: 38.00 ± 11.87 s
  Seizure Score ± S.E.M.: 2.29 ± 0.75
Hippocampal kindled rats; Rattus norvegicus, ip, intraperitoneally, 95% confidence interval of 12.5 to 37.5 mg/kg, read-out: calculated ED50 for reduction of the seizure score from 5 to 3 or less
  ED50: ~22.5 mg/kg
